Laboratory results reported in patent US20240287463A1, “INDUCIBLE TISSUE CONSTRUCTS AND USES THEREOF” (Massachusetts Institute of Technology, priority 2020, published 2024).

Experiments:
[1] = test system: primary human hepatocytes; experiment: hepatocyte albumin and urea in tri-culture microfluidic devices; type: cell-based; conditions: 50 nM CID after 5 days of tri-culture
From the text: (§1) Specifically, MPCC were fabricated as described previously (S. R. Khetani and S. N. Bhatia (2005) Nat. Biotechnol 26, 120; S. March et al. (2015) Nat. Protoc. 10, 2007). Briefly, collagen was adsorbed in each well of a 96 well plate (glass bottom), and then patterned using an elastomeric polydimethysiloxane mold and oxygen plasma gas ablation. Human hepatocytes were thawed and seeded (70 k/well) on the collagen islands (500 μm with 1,200 μm center-to-center spacing). Adhered hepatocytes (˜10 k/well) were allowed to spread overnight before fibroblasts were seeded for co-culture (7 k/well). Supernatant was collected from cultures every other day and stored at −20° C. Human albumin was quantified using an enzyme-linked immunosorbent assay using a sheep anti-rat albumin antibody (ELISA) (Bethyl Laboratories) and 3,3′,5,5′-tetramethylbenzidine (TMB, Thermo Fisher). Urea concentration was measured using a colorimetric (diacetylmonoxime) assay with acid and heat (Stanbio Labs). CYP3A4 activity was assessed with the luminogenic P450-GloTM CYP450 assay kit (Promega) for nonlytic assays using cultured cells. Cultures were pre-treated with 2 μM rifampin or 1:1,000 DMSO vehicle control prepared in hepatocyte maintenance media for 72 hours (daily replenishment) where indicated.
Given that fibroblasts are only transiently required for supporting the formation of a functional vasculature, it was investigated whether CAMEO could be used in the vascularization of tissue constructs with organ-specific parenchymal cells without negatively affecting the function of the parenchymal cells. To investigate this, a tri-culture system of HUVECs, iCasp9-HDFs, and primary human hepatocytes was employed in the microfluidic device. […] To evaluate whether the hepatocytes remained functional after CID treatment, levels of albumin and urea, markers for hepatic protein synthesis function and nitrogen metabolism, respectively, were measured in the media.

[2] = test system: iCasp9-HLF; experiment: HUVEC/iCasp9-HLF tissue constructs implanted in mouse fat pad; type: in vivo, mice; conditions: 10 mg/kg intraperitoneally on days 5, 7, 9
Protocol: The ability to successfully transplant the described tissue constructs was assessed in mice. Specifically, engineered tissue constructs consisting of HUVECs and iCasp9-human lung fibroblasts (iCasp9-HLF, see Example 7) were cultured for 7 days in vitro. Constructs were then implanted into the intraperitoneal mesenteric parametrial fat pad of mice. Five days after implantation, mice were injected with 10 mg/kg CID or vehicle intraperitoneally. Mice were dosed again on days 7 and 9. Constructs were collected from mice on day 10 post-implantation. Explants were cryosectioned and imaged to visualize the presence of cells.

[3] = test system: HUVECs; experiment: vascular network in HUVEC/iCasp9-HLF microfluidic devices after fibroblast removal; type: cell-based, human; conditions: iCasp9-HLFs removed after only 3 days of co-culture
[4] = test system: iCasp9-GFP J2 population; experiment: fibroblast removal from 2D micropatterned co-cultures (MPCC); type: cell-based; conditions: 50 nM CID
From the text: as §1, with “indicated. […]” for “indicated.”

[5] = test system: primary human hepatocytes; experiment: hepatocyte phenotypic stability (albumin production) in MPCC after fibroblast deletion; type: cell-based; conditions: CID at day 1, day 3 or day 7 of 2D MPCC
From the text: as §1, with “Cultures were pre-treated with 2 μM rifampin or 1:1,000 DMSO vehicle control prepared in hepatocyte maintenance media for 72 hours (daily replenishment) where indicated.” left out
To query the dependence of hepatocytes on fibroblasts, fibroblasts were deleted from MPCCs by CID treatment at various time points and albumin production was assessed as a surrogate marker of phenotypic stability.

secretive functions of the hepatocytes [1]: did not negatively affect
hepatocyte phenotypic stability (albumin production) [5]: loss of hepatocyte phenotypic stability
Structure (SMILES): CC[C@H](C(=O)N1CCCC[C@H]1C(=O)O[C@H](CCc1ccc(OC)c(OC)c1)c1cccc(OCC(=O)NCC(CNC(=O)COc2cccc([C@@H](CCc3ccc(OC)c(OC)c3)OC(=O)[C@@H]3CCCCN3C(=O)[C@@H](CC)c3cc(OC)c(OC)c(OC)c3)c2)CN(C)C)c1)c1cc(OC)c(OC)c(OC)c1 [CID, AP20187]
secreted albumin versus vehicle control ([1]; day 7): statistically higher level
secreted urea versus vehicle control ([1]; day 7): statistically higher level
integration of engineered vessels with host vessels (anti-TER119) ([2]; collected day 10): demonstrated vessel integration
iCasp9-HLF in explants compared to vehicle treated mice ([2]; collected day 10 post-implantation): reduction
self-assembly of HUVECs at day 7 [3]: able to self-assemble into perfusable vasculature
removal of fibroblasts from MPCC [4]: selective removal of the iCasp9-GFP J2 population
